Results from US6380216B1, “Use of (+)-α-(2,3-dimethoxyphenyl)-1-[2-(4-fluorophenyl) ethyl]-4-piperidinemethanol in treating depressive disorders and bipolar disorders” (Aventis Pharmaceuticals Inc., priority 1996, dated 2002).

Experiments:
[1] = tested on: Male Wistar rats; assay: Chronic Mild Stress Model of Depression (CMS), sucrose intake
From the text: CMS uses mild stressors, such as food and water deprivation, small temperature changes, changes of cage mates, etc. Over a period of weeks of exposure to the mild stressors, the animals gradually reduce their consumption of a highly preferred sucrose solution which persists (in untreated animals) for several weeks following the cessation of stress.
Male Wistar rats were brought into the laboratory two months before the start of the experiment at which time they weighed aprroximately 300 grams. Except as described below, the animals were singly housed, with food an eater freely available, and maintained on a 12 hour light/dark cycle (lights on at 8 AM) at a temperature of 22±° C.
The animals were first trained to consume a 1% sucrose solution; training consisted of eight 1 hour baseline tests in which sucrose was presented, in the home cage, following 14 hours food and water deprivation; intake was measured by weighing pre-weighed bottles containing the sucrose solution at the end of the test. Subsequently, sucrose consumption was monitored, under similar conditions, at weekly intervals throughout the whole experiment.
On the basis of their sucrose intakes in the final baseline test, the animals were divided into two matched groups. One group of animals was subjected to a chronic mild stress procedure for a period of 9 consecutive weeks. Each week of stress regime consisted of: two periods of food or water deprivation (12 and 14 hour), two periods of 45 degree cage tilt (12 and 14 h), two periods of intermittent overnight illumination (lights on and off every 2 hours), two 14 hour periods of soled cage (200 ml water in sawdust bedding), two 14 hour periods of paired housing, two 14 hour periods of low intensity stroboscopic illumination (150 flashes/min). Stressors were applied continuously throughout the day and night, and scheduled randomly. […] They were deprived of food and water for the 14 hours preceding each sucrose test, but otherwise food and water were freely available in the home cage. […] All drug injections were in a volume of 1 ml/kg body weight. Drugs were administered at 10 AM and sucrose tests were carried out 24 hours following the last drug treatment. After five weeks, the treatments were terminated and after one week of withdrawal a final sucrose test was carried out. Stress was continued throughout the period of treatment and withdrawal.
Results were analyzed by multiple analysis of variance, followed by Fisher's LSD test for post hoc comparisons of means.

[2] = target: D1 (dopamine) receptor (Homo sapiens, UniProt P21728); assay: affinity for the D1 (dopamine) receptor in in vitro models; type: binding
[3] = tested on: cholinergic M1/M2 receptors; assay: affinity for the cholinergic M1/M2 receptors; type: binding
From the text: It is orally active, non-toxic at therapeutic doses and potent. It is also capable of being sealed-up for commercial synthesis. Additionally, neurochemical studies indicate that there is a serotonin/dopamine interaction following chronic administration of this compound as described in Life Sciences 56(25): 2209-2222 (1995), incorporated herein by reference. The combination of the foregoing characteristics produces a unique compound for treating patients having either Depressive Disorders of Bipolar Disorders.

[4] = target: D2 (dopamine) receptor (Homo sapiens, UniProt P14416); assay: affinity for the D2 (dopamine) receptor in in vitro models; type: binding
D2 (dopamine) receptor, sequence (P14416 whole entry): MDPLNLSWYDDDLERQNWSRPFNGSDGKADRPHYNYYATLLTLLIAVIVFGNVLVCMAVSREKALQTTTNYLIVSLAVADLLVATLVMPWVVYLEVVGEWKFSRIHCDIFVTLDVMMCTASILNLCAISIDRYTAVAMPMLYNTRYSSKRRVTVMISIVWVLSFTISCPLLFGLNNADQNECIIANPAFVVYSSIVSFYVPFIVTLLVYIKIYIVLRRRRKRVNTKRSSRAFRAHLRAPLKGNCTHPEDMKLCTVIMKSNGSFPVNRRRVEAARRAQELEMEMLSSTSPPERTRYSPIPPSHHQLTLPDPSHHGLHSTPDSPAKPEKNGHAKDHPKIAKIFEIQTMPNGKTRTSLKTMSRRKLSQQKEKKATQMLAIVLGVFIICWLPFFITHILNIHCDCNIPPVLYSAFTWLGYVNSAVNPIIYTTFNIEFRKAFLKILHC

[5] = tested on: α-1 receptor; assay: affinity for the α-1 receptor in in vitro models; type: binding

D1 (dopamine) receptor, sequence (P21728 whole entry): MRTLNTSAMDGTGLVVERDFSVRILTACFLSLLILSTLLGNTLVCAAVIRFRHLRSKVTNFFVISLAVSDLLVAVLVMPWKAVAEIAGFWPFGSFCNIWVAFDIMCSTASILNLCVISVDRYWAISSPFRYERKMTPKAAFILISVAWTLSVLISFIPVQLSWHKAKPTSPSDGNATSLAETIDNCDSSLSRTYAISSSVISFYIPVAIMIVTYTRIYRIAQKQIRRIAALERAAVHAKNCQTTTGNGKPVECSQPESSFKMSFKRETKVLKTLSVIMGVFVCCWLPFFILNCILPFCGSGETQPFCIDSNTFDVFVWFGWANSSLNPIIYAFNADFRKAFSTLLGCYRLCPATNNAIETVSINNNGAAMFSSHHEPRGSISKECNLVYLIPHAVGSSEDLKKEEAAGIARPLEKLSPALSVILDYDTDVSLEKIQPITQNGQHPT

affinity for the D1 (dopamine) receptor [2]	affinity for the cholinergic M1/M2 receptors [3]	affinity for the D2 (dopamine) receptor [4]	affinity for the α-1 receptor [5]	Compound	effect on sucrose intake in control animals ([1]; control (unstressed) rats, 10 mg/kg ip daily, five weeks)	weeks of treatment after which sucrose intake was significantly increased from Week 0 scores ([1]; stressed rats, 10 mg/kg ip daily)	sucrose intake after five weeks of treatment compared with controls ([1]; stressed rats, 10 mg/kg ip daily, Week 5)	effect on sucrose intake in stressed animals ([1]; stressed rats, 10 mg/kg ip daily, five weeks)	sucrose intake one week after withdrawal from the drug ([1]; stressed rats, 10 mg/kg ip, one week after withdrawal)	effect on sucrose intake in control animals ([1]; control (unstressed) rats, 0.002, 0.02 and 0.2 mg/kg orally daily, five weeks)	sucrose intakes one week after withdrawal from the treatment ([1]; control and stressed rats, 0.002, 0.02 and 0.2 mg/kg orally, one week after withdrawal)	weeks of treatment after which sucrose intake was significantly increased from initial scores (Week 0) ([1]; stressed rats, 0.02 mg/kg orally daily)	amount of sucrose solution drunk at the end of treatment period (Week 5) ([1]; stressed rats, 0.02 mg/kg orally daily, Week 5)	weeks of treatment after which sucrose intake was significantly increased from initial scores (Week 0) ([1]; stressed rats, 0.2 mg/kg orally daily)	amount of sucrose solution drunk at the end of treatment period (Week 5) ([1]; stressed rats, 0.2 mg/kg orally daily, Week 5)	effect on sucrose intake in stressed animals ([1]; stressed rats, 0.002, 0.02 and 0.2 mg/kg orally daily, five weeks (overall Treatment effect))	effect on sucrose intake throughout the whole treatment period ([1]; stressed rats, lowest dose 0.002 mg/kg orally daily, five weeks)
–	–	–	–	CN(C)CCCN1c2ccccc2CCc2ccccc21 [Imipramine, reference compound]	no significant effect	four	no significant differences between drug-treated stressed animals and drug- and saline-treated controls	gradual increase of sucrose intake	maintained at similar level	–	–	–	–	–	–	–	–
greater than 100 nM	little affinity	greater than 100 nM	greater than 100 nM	COc1cccc(C(O)C2CCN(CCc3ccc(F)cc3)CC2)c1OC (stereo not drawn) [THE COMPOUND, (+)-α-(2,3-dimethoxyphenyl)-1-[2-(4-fluorophenyl)ethyl]-4-piperidinemethanol]	–	–	–	–	–	no significant effect	not significantly changed	two	comparable to that of vehicle-treated controls and significantly higher than that of vehicle-treated stressed animals	three	comparable to that of vehicle-treated controls and significantly higher than that of vehicle-treated stressed animals	gradually reversed the CMS-induced deficit in sucrose intake	no significant effect
